Measured values published in ChEMBL document CHEMBL4651402, “Screening of ~5500 FDA-approved drugs and clinical candidates for anti-SARS-CoV-2 activity” (2021).

System: SARS-CoV-2
Test: microbe, parasite or virus in culture
Details: Severe acute respiratory syndrome coronavirus 2, Vero C1008, 48 h

Compound	IC50	IC50 (read-out: pIC50 (converted))
CC[C@H]1OC(=O)[C@H](C)[C@@H](O[C@H]2C[C@@](C)(OC)[C@@H](O)[C@H](C)O2)[C@H](C)[C@@H](O[C@@H]2O[C@H](C)C[C@H](N(C)C)[C@H]2O)[C@](C)(O)C[C@@H](C)/C(=N\OCOCCOC)[C@H](C)[C@@H](O)[C@]1(C)O [ROXITHROMYCIN]	> 20 µM	> 20 µM
CC(=O)NC(CC(=O)O)C(=O)O (configuration not stated)	> 20 µM	> 20 µM
C[C@H](CCC(=O)NCC(=O)O)[C@H]1CC[C@H]2[C@@H]3[C@H](O)C[C@@H]4C[C@H](O)CC[C@]4(C)[C@H]3C[C@H](O)[C@]12C [GLYCOCHOLIC ACID]	> 20 µM	> 20 µM
C=C[C@H]1CN2CC[C@H]1C[C@H]2[C@H](O)c1ccnc2ccc(OC)cc12 [QUININE]	> 20 µM	> 20 µM
CC(=O)CC(c1ccc([N+](=O)[O-])cc1)c1c(O)c2ccccc2oc1=O (configuration not stated) [ACENOCOUMAROL]	> 20 µM	> 20 µM
COc1ccccc1-c1coc2cc(O)ccc2c1=O	> 20 µM	> 20 µM
CN(C)CC(c1ccc(O)cc1)C1(O)CCCCC1 (configuration not stated) [DESVENLAFAXINE]	> 20 µM	> 20 µM
CC(C)[C@H](N)C(=O)O[C@@H]1[C@@H](CO)O[C@@H](n2ccc(N)nc2=O)[C@]1(C)O [VALOPICITABINE]	> 20 µM	> 20 µM
CCC[C@H](c1ccc(C(=O)NCCC(=O)O)cc1)[C@@H](c1ccc(Cl)cc1)c1c[nH]c2c(F)cc(C)cc12	> 20 µM	> 20 µM
COC(=O)OC[C@H]1O[C@@H](Oc2cc(C)cc(O)c2C(=O)CCc2ccc3occc3c2)[C@H](O)[C@@H](O)[C@@H]1O	> 20 µM	> 20 µM
CN1C(CC(O)c2ccccc2)CCCC1CC(O)c1ccccc1 (configuration not stated)	> 20 µM	> 20 µM
CO[C@@]1(NC(=O)Cc2cccs2)C(=O)N2C(C(=O)O)=C(COC(N)=O)CS[C@@H]21 [CEFOXITIN]	> 20 µM	> 20 µM
N#CC(c1ccc(Cl)cc1)c1ccc(-n2ncc(=O)[nH]c2=O)cc1Cl (configuration not stated) [CLAZURIL]	> 20 µM	> 20 µM
CC(C)c1ccc(C(=O)NCCOc2ccc(C(=O)O)cc2)cc1	> 20 µM	> 20 µM
N=C1NC(=O)N2CC12 (configuration not stated) [IMEXON]	> 20 µM	> 20 µM
O=C(O)CCCNC(=O)c1cccnc1	> 20 µM	> 20 µM
Cc1ccc(-c2cc(C(F)(F)F)nn2-c2ccc(S(N)(=O)=O)cc2)cc1 [CELECOXIB]	> 20 µM	> 20 µM
NC(C(=O)NC1C(=O)N2C(C(=O)O)=C(CSc3c[nH]nn3)CSC12)c1ccc(O)cc1 (configuration not stated)	> 20 µM	> 20 µM
COc1cc(CC(C)N)c(OC)cc1C (configuration not stated) [DOM]	> 20 µM	> 20 µM
C[C@H](Cc1cc2c(c(C(N)=O)c1)N(CCCO)CC2)NCCOc1ccccc1OCC(F)(F)F [SILODOSIN]	> 20 µM	> 20 µM
Cc1cc(O)c2c(c1)C(=O)c1cc(O)cc(O)c1C2=O [EMODIN]	> 20 µM	> 20 µM

Compound	IC50	IC50 (read-out: pIC50 (converted))
O=C1NC(=O)C(=O)C(=O)N1 [ALLOXAN]	> 20 µM	> 20 µM
COCCOc1c(OC)cc(Cc2cnc(N)nc2N)cc1OC [TETROXOPRIM]	> 20 µM	> 20 µM
NC[C@H](O)c1ccc(O)c(O)c1 [NOREPINEPHRINE]	> 20 µM	> 20 µM
C[C@]1(COc2ccc(N3CCC(Oc4ccc(OC(F)(F)F)cc4)CC3)cc2)Cn2cc([N+](=O)[O-])nc2O1	> 20 µM	> 20 µM
O=C(OC1C[C@@H]2CC3C[C@@H](C1)N2CC3=O)c1c[nH]c2ccccc12 (some centres not stated)	> 20 µM	> 20 µM
Cc1oc(-c2ccccc2)nc1CCOc1ccc(CC2C(=O)NOC2=O)cc1 (configuration not stated) [REGLITAZAR]	> 20 µM	> 20 µM
O=C1N[C@@H](C(=O)O)CS1	> 20 µM	> 20 µM
CO[C@H]1/C=C\O[C@@]2(C)Oc3c(C)c(O)c4c(=O)c(c5oc6cc(N7CCN(CC(C)C)CC7)cc(O)c6nc-5c4c3C2=O)NC(=O)/C(C)=C\C=C/[C@H](C)[C@H](O)[C@@H](C)[C@@H](O)[C@@H](C)[C@H](OC(C)=O)[C@@H]1C	> 20 µM	> 20 µM
O=C1CN2Cc3c(ccc(Cl)c3Cl)N=C2N1 [ANAGRELIDE]	> 20 µM	> 20 µM
CNC(=O)c1cc(Oc2ccc(NC(=O)Nc3ccc(Cl)c(C(F)(F)F)c3)cc2)ccn1 [SORAFENIB]	> 20 µM	> 20 µM
Nc1nonc1/C(=N/O)Nc1ccc(F)c(Cl)c1	> 20 µM	> 20 µM
CN(C)CCC(c1ccc(Cl)cc1)c1ccccn1 (configuration not stated) [CHLORPHENIRAMINE]	> 20 µM	> 20 µM
N[C@@H]1CCCCN(c2c(F)cc3c(=O)c(C(=O)O)cn(C4CC4)c3c2Cl)C1 [BESIFLOXACIN]	> 20 µM	> 20 µM
Cc1ccc(C2(O)CCN(CCCC(=O)c3ccc(F)cc3)CC2)cc1 [MOPERONE]	> 20 µM	> 20 µM
Nc1ncnc(Nc2ccccc2)n1 [AMANOZINE]	> 20 µM	> 20 µM
O=C(O)c1ccccc1S [THIOSALICYLIC ACID]	> 20 µM	> 20 µM
CCCCCC(O)c1cccc(OCc2ccc3ccccc3n2)c1 (configuration not stated) [REV-5901]	> 20 µM	> 20 µM
Nc1ccc(C(=O)O)c(O)c1 [AMINOSALICYLIC ACID]	> 20 µM	> 20 µM
Cc1ncc(CO)c(CN)c1O [PYRIDOXAMINE]	> 20 µM	> 20 µM
CC(=O)O[C@H]1CC[C@@]2(C)C(CC[C@]3(C)C2C(=O)C=C2[C@H]4C[C@@](C)(C(=O)O)CC[C@]4(C)CC[C@]23C)C1(C)C (some centres not stated)	> 20 µM	> 20 µM
C[N+](C)(C)CC[N+]1(C)Cc2c(Cl)c(Cl)c(Cl)c(Cl)c2C1 [CHLORISONDAMINE]	> 20 µM	> 20 µM

Compound	IC50	IC50 (read-out: pIC50 (converted))
CC(C)(Oc1ccc(C2CC2(Cl)Cl)cc1)C(=O)O (configuration not stated) [CIPROFIBRATE]	> 20 µM	> 20 µM
O=c1[nH]c2ccccc2n1C1CCN(CCCC(c2ccc(F)cc2)c2ccc(F)cc2)CC1 [PIMOZIDE]	> 20 µM	> 20 µM
CCCCCCCCCCCCCCCC[N+](C)(C)CCN(Cc1ccc(OC)cc1)c1ncccn1 [THONZONIUM]	> 20 µM	> 20 µM
CC12C=CC(=O)C=C1[C@@H](F)CC1C2C(O)CC2(C)C1CCC2(O)C(=O)CO (some centres not stated)	> 20 µM	> 20 µM
COc1ccc(-c2ccc3c(N4CCOC[C@@H]4C)nc(N4CCOC[C@@H]4C)nc3n2)cc1CO [AZD-8055]	> 20 µM	> 20 µM
COC(=O)C1=C(C)NC(C)=C(C(=O)OC)C1c1ccccc1[N+](=O)[O-] [NIFEDIPINE]	> 20 µM	> 20 µM
C=C1CC[C@H]2[C@@H](/C=C(/C)C(=O)[C@@]3(OC(C)=O)C[C@H](C)[C@H](OC(=O)c4ccccc4)[C@@H]3[C@H]1OC(C)=O)C2(C)C	> 20 µM	> 20 µM
Cc1ccc(S(N)(=O)=O)cc1 [P-TOLUENESULFONAMIDE]	> 20 µM	> 20 µM
OC1(c2ccc(Cl)cc2)c2ccccc2C2=NCCN21 (configuration not stated) [MAZINDOL]	> 20 µM	> 20 µM
CCOC(=O)[C@H](C)C[C@@H](C)C(=O)N1c2ccccc2C[C@H]1C(=O)O [PENTOPRIL]	> 20 µM	> 20 µM
C[C@@]12CCC3[C@@](CC[C@@H]4[C@](C)(C(=O)O)CCC[C@@]34C)(CC1=O)C2 (some centres not stated)	> 20 µM	> 20 µM
CC(C)c1ccc2c(c1)CCC1C(C)(C(N)=O)CCCC21C (configuration not stated)	> 20 µM	> 20 µM
CN1CCC(OC(c2ccccc2)c2ccccc2)CC1	> 20 µM	> 20 µM
COc1cc2c(c(OC)c1OC)-c1c(cc3c(c1OC)OCO3)C[C@H](C)[C@@](C)(O)C2 [BESIGOMSIN]	> 20 µM	> 20 µM
Cc1cc(SCc2sc(-c3ccc(C(F)(F)F)cc3)nc2C)ccc1OCC(=O)O [GW501516]	> 20 µM	> 20 µM
O=C(O)C1N[C@H](C(=O)O)CS1 (some centres not stated)	> 20 µM	> 20 µM
CC(C(=O)O)c1ccc2oc(-c3ccc(F)cc3)nc2c1 (configuration not stated)	> 20 µM	> 20 µM
COC(=O)N[C@H](C(=O)N1CCC[C@H]1c1ncc(-c2ccc(-c3ccc(-c4cnc([C@@H]5CC6(CN5C(=O)[C@@H](NC(=O)OC)C(C)C)OCCO6)[nH]4)cc3)cc2)[nH]1)C(C)C	> 20 µM	> 20 µM
Clc1ccc(C(Cn2ccnc2)OCc2ccsc2Cl)c(Cl)c1 (configuration not stated) [TIOCONAZOLE]	> 20 µM	> 20 µM
